From patent US20240025849A1 (MAX DELBRÜCK-CENTRUM FÜR MOLEKULARE MEDIZIN IN DER …, priority 2020, published 2024)
Where “and” joins values, the source holds several entries; their conditions need not be identical. Equal values may be shown once. Entries after “also recorded” stand apart in the source; their conditions may differ.

Assays:
[1] = tested on: primary cultured microglial cells; assay: Flow cytometry-based phagocytosis assay; format: cell-based, mouse; conditions: 2.5 μM C1
Description: Flow cytometry-based phagocytosis assay. 10^6 primary cultured microglial cells were seeded into 3.5 cm dishes in plain medium overnight at standard conditions. The cells were treated for 1 hour with 2.5 μM C1 in DMSO, 125×10^−5 v/v DMSO respectively, or plain medium only. To stimulate microglia, LPS (1 μg/ml) was added for additional 24 hours. Fluoresbrite Carboxylate Microspheres (BrightBlue, 4.5 μm, Polyscience, Niles, USA) were coated with fetal calf serum for 30 min at room temperature, and subsequently centrifuged at 3000 g for 2 min at room temperature. The beads were resuspended in HBSS at a final concentration of 2×10^6 beads per ml. The microglia culture was washed once with HBSS (37° C.) before 1 ml bead solution was applied. The cells were incubated with the beads for 30 min at 37° C. Afterwards, microglia were washed twice with ice cold HBSS, scratched off and pulled down at 500 g for 5 min. The cells were resuspended in a propidium iodide solution (1:200 in HBSS) to stain dead cells. The stained cells were transferred to a BD LSRFortessa Flow cytometer (BD Bioscience, Sparks, USA). The median intensity of the bright blue beads was calculated using Flowlo v10 software (Ashland, USA). The data of each experiment was normalised to the unstimulated media control.

[2] = tested on: bone marrow derived macrophages; assay: Cytokine release (IL1β, IL6, TNFα) ELISA in macrophages; format: cell-based, mouse; conditions: 1 μg/mL LPS 48 hours
Description: (§1) Primary cultured macrophages. Bone marrow macrophages were isolated from C57BL/6 adult mice (P49-56) as previously described (Marim et al., 2010). In summary, mice were killed by cervical dislocation and the femurs were removed by cutting through the tibia near the pelvic bone and below the knee. Any muscle connected to the bone was carefully removed. Ice cold sterile PBS was slowly flushed through the bone and the contents were collected in a sterile 15 mL polypropylene tube on ice. After centrifugation for 10 min at 200 g at 4° C., red blood cells were lysed by adding 3-10 mL ammonium chloride solution. After a 3-5 min recovery period, the suspension was centrifuged for 10 min at 200 g at 4° C. and the supernatant was removed. Cells were plated in a 10 cm dish with plain medium containing 10 ng/mL M-CSF and cultured for 7 days to allow differentiation. 50 000 cells were plated with 200 μL medium per well in a 96 well plate.
Enzyme-linked immunosorbent assay (ELISA). Cells were seeded according to the protocols described above, after compounds and stimuli were added, the supernatant was collected, centrifuged (500 g, 5 minutes) and stored at −20° C. until analysed. The following kits from Bio-Techne (Minneapolis, USA) were used to detect IL1β, IL6 and TNFα: ELISA Mouse IL-1β/IL-1F2 Duo Set, ELISA Mouse IL-6, ELISA Mouse TNFα. ELISA assays were performed according to the manufacturers protocol.

[3] = tested on: oligodendrocyte cell line OLN-93; assay: AlamarBlue assay in OLN-93 cells; format: cell-based; conditions: 2.5 μM C1, 48 hours, unstimulated
Description: Cell culture of immortalized cell lines: microglia cell line BV2, and oligodendrocyte cell line OLN-93. The immortalized murine microglia cell line BV2 (Blasi et al., 1990) and the oligodendrocyte cell line OLN-93 (Richter-Landsberg and Heinrich, 1996) were incubated in T75 flasks with plain medium. The cells were split every 2 to 3 days at the dilution 1:10 before they reached confluence. To do so, the cells were washed twice with PBS, followed by up to 5 min of trypsination. The trypsination was stopped using plain medium. The cells were centrifuged at 300 g for 10 min at 4° C., the supernatant was discarded, and the cells were resuspended in new medium and seeded into a new flask.
AlamarBlue assay. Cells were seeded according to the protocols described above, after compounds and stimuli were added, the cells were washed once with HBSS (37° C.) and 100 μl of a 1:10 AlamarBlue (Thermo Fisher Scientific) dilution in plain medium was added. The conversion of resazurin to resorufin was measured by absorbance (absorbance wavelength of 570 nm and a reference wavelength of 600 nm) after 3 hours.
The inventors evaluated the metabolic activity, proliferation and cell death of primary cultured neonatal microglia, primary cultured neonatal astrocytes and the oligodendrocyte cell line OLN-93 under physiological conditions. […]

[4] = tested on: bone marrow derived macrophages; assay: AlamarBlue assay (metabolic activity) in macrophages; format: cell-based, mouse; conditions: for cell (metabolic) activity, % of positive control: 1 μg/mL LPS 48 hours
Description: as §1, with “([…]-56)” for “(P49-56)”, “plate. AlamarBlue assay. Cells were seeded according to the protocols described above, after compounds and stimuli were added, the cells were washed once with HBSS (37° C.) and 100 μl of a 1:10 AlamarBlue (Thermo Fisher Scientific) dilution in plain medium was added. The conversion of resazurin to resorufin was measured by absorbance (absorbance wavelength of 570 nm and a reference wavelength of 600 nm) after 3 hours.” for “plate.”

With COc1ccc(NC(=O)C(NC(=O)C2CCCN2C(=O)OCc2ccccc2)c2ccc(OC)cc2)cc1 (stereo not drawn) [C1] the “phagocytic activity, basal conditions” value [1] was “neither C1 nor DMSO changes microglial phagocytosis significantly; also recorded: did not alter”, the “increase of phagocytosis upon LPS compared to own unstimulated control” value ([1]; 1 μg/mL LPS 24 hours) was “+45%” and the “phagocytic activity, LPS stimulated conditions” value ([1]; 1 μg/mL LPS 24 hours) was “no significant differences; also recorded: did not alter”. For the same compound, the “LPS induced release of IL1β” value [2] was “not changed; also recorded: Neither the treatment with C1 nor with DMSO showed any significant changes”, the “LPS induced release of IL6” value [2] was “not changed; also recorded: Neither the treatment with C1 nor with DMSO showed any significant changes” and the “reduction of TNFα release” value ([2]; 2.5 μM (highest concentration) C1) was 9% and 5%. For the same compound, the “release of TNFα, % of positive control” value ([2]; 2.5 μM C1) was 91%, the “metabolic activity of OLN-93 cells” value [3] was “increased the metabolic activity in oligodendrocytes compared to DMSO (p=0.0431) but not compared to plain medium; also recorded: not affected” and the “cell (metabolic) activity, % of positive control” value (“cell (metabolic) activity, %” for short) ([4]; 0.025 μM C1) was 78.47±31.61%. For the same compound, the “metabolic activity of PolyIC stimulated macrophages” value ([4]; 0.025 μM C1, 100 μg/mL PolyIC 24 hours) was “reduction of metabolic activity; also recorded: deceased significantly”, the “cell (metabolic) activity, %” value ([4]; 0.25 μM C1) was 69.31±36.50% and the “metabolic activity of IFNγ stimulated macrophages” value ([4]; 0.25 μM and 2.5 μM C1, 100 ng/mL IFNγ 48 hours) was “significant decrease in metabolic activity; also recorded: decreased the metabolic of IFNγ (100 ng/ml) significantly compared to plain medium”. The “cell (metabolic) activity, %” value ([4]; 2.5 μM C1) was 66.48±31.17%, the “metabolic activity of macrophages stimulated with LPS” value ([4]; all tested concentrations of C1) was “decreased the metabolic activity” and the “metabolic activity of PolyIC stimulated macrophages” value ([4]; higher concentrations of C1 (0.25, 2.5 μM)) was “did not show a significant difference”.
